# According to patent US20020077289A1, “Angiostatin and endostatin binding proteins and methods of use” (priority 2000, published 2002):
# Read-outs that look alike come from different tables or passages of the source. Bridges are numbered along the chain shown (N, C = ends). Where no end group is shown, it is not given here.
# T1: recombinant human Endostatin protein (Homo sapiens, UniProt P39060)
# T1 construct: recombinant human Angiostatin protein, K1-4 protein, or recombinant human Endostatin protein were coated overnight; made in house; host or cells: Pichia pastoris
# T1 sequence (P39060 1572-1754 limits assumed): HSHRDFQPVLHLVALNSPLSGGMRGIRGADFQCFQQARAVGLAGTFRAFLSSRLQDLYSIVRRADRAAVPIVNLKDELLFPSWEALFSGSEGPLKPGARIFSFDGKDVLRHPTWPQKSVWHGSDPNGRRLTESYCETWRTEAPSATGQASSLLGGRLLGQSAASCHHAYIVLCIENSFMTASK
# Key:
# [1] = test system: recombinant human Angiostatin protein; experiment: Phage display panning on Angiostatin protein; assay type: binding
# Chain of recombinant human Angiostatin protein (P00747 103-352 limits assumed): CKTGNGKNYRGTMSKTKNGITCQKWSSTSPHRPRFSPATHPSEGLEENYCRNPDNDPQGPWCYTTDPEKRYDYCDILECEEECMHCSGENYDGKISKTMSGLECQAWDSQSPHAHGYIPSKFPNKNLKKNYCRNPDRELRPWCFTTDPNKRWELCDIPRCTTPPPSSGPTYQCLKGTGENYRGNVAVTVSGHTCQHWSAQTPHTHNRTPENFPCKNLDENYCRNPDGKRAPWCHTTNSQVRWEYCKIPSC
# Excerpt: (§1) The Ph.D.-7 phage display library (New England BioLabs Cat #8100), a combinatorial library consisting of random peptide 7-mers, was screened for 7 amino acid binding peptides. The Ph.D.-7 phage display library consists of linear 7-mer peptides fused to the pIII coat protein of M13 via a Gly-Gly-Gly-Ser flexible linker. The library contains 2.8×10^9 independent clones. The Ph.D. library is useful for identifying targets requiring binding elements concentrated in a short stretch of amino acids.
# (§2) The Ph.D.-C7C library (New England BioLabs Cat # 8120) is a combinatorial library consisting of random peptide 7-mers flanked by cysteine residues that under non-denaturing conditions are disulfide bonded resulting in the display of cyclized peptides. In non-reducing conditions, the cysteines form a disulfide bond resulting in each peptide being constrained in a disulfide loop. The library contains 3.7×10^9 independent clones that, like the Ph.D.-7 library, result in peptides fused to the pIII coat protein of M13 via a Gly-Gly-Gly-Ser flexible linker. Constrained libraries are useful in the identification of structural epitopes. The Ph.D.-C7C library was screened for the binding of 7 amino acid cyclized binding peptides.
# The phage display libraries were screened following the manufacturers' recommendations. […]
# [2] = target: T1, recombinant human Endostatin protein; experiment: Phage display panning on Endostatin protein; assay type: binding
# Excerpt: The Ph.D.-C7C, a disulfide constrained 7-mer phage-display library (New England BioLabs, Beverly, Mass.), was screened as recommended by the manufacturer. Following a third round of amplification individual phage were isolated and the peptide sequences deduced by DNA sequencing.
# as §1
# as §2, with “Constrained libraries are useful in the identification of structural epitopes. The Ph.D.-C7C library was screened for the binding of 7 amino acid cyclized binding peptides.” left out
# B16-BL6 melanoma cells = experiment: B16-BL6 experimental metastasis assay; assay type: in vivo, C57BL/6J mice
# Procedure: C57BL/6J mice were injected via the tail vein with 5×10^4 B16-BL6 melanoma cells on day 0. On day 3, groups of five mice received daily subcutaneous doses of either buffer control, 1.5 nmol (1.5 mg/kg/day) of rhEndostatin in combination with 0, 15, 75 or 375 nmol of control or E37 peptide, or control or E37 peptide alone for eleven days. All mice were sacrificed on day 14, and the number of pulmonary surface metastases in each animal counted. Error bars indicate standard deviation of the mean.
# C57BL/6J mice (n=8) were injected intravenously (i.v.) with 5×10^4 B16-BL6 cells/mouse. Three days later treatment commenced. 100 μl of citrate-phosphate buffer (66 mM Sodium Phosphate, 17 mM Citric acid, 59 mM NaCl pH 6.2) containing 1.5 nmol of rhEndostatin and 100 μl of PBS containing either 0, 15, 75 or 375 nmol of control or E37 peptide were mixed and injected subcutaneously (s.c.) daily for 11 days. All mice were then sacrificed, their lungs removed and the number of surface metastases counted. Results were analyzed for statistical significance using the 2-tailed Student's t-test.
# The following experiment was conducted to determine the interaction of E37 peptide and Endostatin protein. Briefly, the B16BL6 experimental metastasis assay, as known to those of skill in the art and further described in International Patent Application number PCT/US99/11418, was performed as follows. 5×10^4 B16-BL6 cells in 200 μl of PBS were injected into C57BL/6J mice via the tail vein. Three days post injection treatment was started. The injection received by eight groups of mice were: 1) citrate phosphate/PBS buffer, 2) ^30 μg Endostatin protein (in 100 μl PBS), 3) 30 μg Endostatin protein (in 200 μl PBS), 4) 30 μg Endostatin protein plus 50 times molar excess of control peptide (in 200 μl PBS), 5) 30 μg Endostatin protein plus 250 times molar excess of control peptide (in 200 μl PBS), 6) 30 μg Endostatin protein plus 10 times molar excess of E37 peptide (in 200 μl PBS), 7) 30 μg Endostatin protein plus 50 times molar excess of E37 peptide (in 200 μl PBS), and 8) 30 μg Endostatin protein plus 250 times molar excess of E37 peptide (in 200 μl PBS). Doses were administered daily for eleven days posterior to the thoracic cavity subcutaneously. All mice were sacrificed, the lungs removed and the number of surface metastases in each animal were counted under a stereo microscope.
# HUVEC microfilaments = experiment: Fluorescent staining of formalin fixed endothelial cells with Alexa 488-labeled rhEndostatin; assay type: cell-based, human; conditions: 50-fold molar excess (100 μM) of peptide; 40 μg/ml (2 μM) Alexa-rhEndostatin
# Procedure: (A), HUVECs, (B), HAECs and (C), HMVECs were incubated in the presence of 40 micrograms per milliliter (μg/ml) Alexa 488-labeled rhEndostatin and photographed at 100× magnification under Alexa 488 (green) excitation wavelength. (D) and (E), HUVECs were incubated simultaneously in anti-tropomyosin TM311 ascites fluid and 40 micrograms per milliliter (μg/ml) Alexa 488-labeled rhEndostatin followed by incubation in Alexa 594 conjugated goat anti-mouse IgG (H+L). The same field was photographed under Alexa 488 (green) and Alexa 594 (red) excitation wavelengths at 100× magnification.
# HUVECs were incubated in the presence of 40 micrograms per milliliter (μg/ml) Alexa 488-labeled rhEndostatin alone (A), or in the presence of a 50-fold molar excess of control peptide (B), or E37 peptide (C). Cells were photographed using the same exposure times at 100x magnification under Alexa 488 (green) excitation wavelength.
# To detect the binding of Alexa-labeled rhEndostatin 1×10^4 HUVEC, HMVEC and HAECs were plated on 1.5% gelatin coated Nalge Nunc Lab Tek II chamber slides (Naperville, Ill.) and fixed in 10% neutral buffered formalin followed by a methanol wash. The chamber slides were incubated in PBS/1% calf serum containing 40 μg/ml (2 μM) of Alexa 488-labeled rhEndostatin (Narum et al., manuscript in preparation) for 1 hr at room temperature. The slides were washed in PBS, coverslips mounted using fluorescent mounting media (Kirkegaard and Perry Laboratories, Gaithersburg, Md.) and cells photographed under Alexa 488 excitation wavelength. Co-localization studies were performed as above except cells were incubated in PBS/1% calf serum containing 1:200 mouse anti-tropomyosin TM311 (Sigma, St. Louis, Miss.) and 40 μg/ml of Alexa 488-labeled rhEndostatin followed by incubation with goat anti-mouse IgG (H+L) conjugated to Alexa 594 (Molecular Probes, Eugene, Oregon). The same fields were photographed under Alexa 488 and Alexa 594 wavelengths. […]
# [3] = target: recombinant human tropomyosin isoform 3 (human); experiment: SPR (BIAcore 3000), rhTM3 immobilized, steady state model
molecule,measurement,setting,value
H A I Y P R H G G G S (HAIYPRHGGGS) [Peptide A10],binding to Angiostatin protein (phage display selection),[1],binds
CTHWWHKRCGGGS (disulfide 1-9 (inferred)) [E37 peptide],binding to Endostatin protein (phage display selection),[2],binds
same,binding to Endostatin protein (phage display selection),[2]; listed as E37,found to bind rhEndostatin
same,decrease in the anti-tumor activity of rhEndostatin,B16-BL6 melanoma cells; co-injection of 1.5 nmol rhEndostatin with 15 nmol E37 peptide,11%
same,decrease in the anti-tumor activity of rhEndostatin,B16-BL6 melanoma cells; co-injection of 1.5 nmol rhEndostatin with 75 nmol E37 peptide,30.5%
same,decrease in the anti-tumor activity of rhEndostatin,B16-BL6 melanoma cells; co-injection of 1.5 nmol rhEndostatin with 375 nmol E37 peptide,84.5%
same,number of metastatic lesions on the lungs versus control group,B16-BL6 melanoma cells; up to 375 nmol/day E37 peptide in the absence of rhEndostatin,not statistically different from that of the control group
same,inhibition of binding of Alexa-labeled rhEndostatin to HUVEC microfilaments,HUVEC microfilaments,inhibited the binding of rhEndostatin to HUVEC microfilaments
"recombinant human Endostatin protein (protein, Alexa Fluor 488 label in some experiments) HSHRDFQPVLHLVALNSPLSGGMRGIRGADFQCFQQARAVGLAGTFRAFLSSRLQDLYSIVRRADRAAVPIVNLKDELLFPSWEALFSGSEGPLKPGARIFSFDGKDVLRHPTWPQKSVWHGSDPNGRRLTESYCETWRTEAPSATGQASSLLGGRLLGQSAASCHHAYIVLCIENSFMTASK",Kd,[3],100 µM
